Reference: US10954269B2, “Anti-inflammatory tripeptides” (Dr. August Wolff Gmbh & Co. KG Arzneimittel, priority 2013, dated 2021)
[ ]: non-standard residue; d: D form. Aib = CC(C)(N)C(=O)O

System: primary human T-cells
Experiment: Cytokine secretion on protein level in activated primary human T-cells (13-plex FACS / Luminex, supernatant)
Assay type: cell-based
How it was run: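 Primary T-cells from peripheral blood of healthy volunteers, or HaCaT cells, were activated with PMA/Ionomycin or IFN-γ for 48 h and treated with tripeptides. Supernatants were collected 48 h and 72 h after stimulation and cytokines (IL-1, IL-2, IL-6, IL-12p70, IL-17, IFN-γ, TNF-α) were measured by 13-plex FACS.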

[1] = primary human T-cells stimulated with IFN-γ, 10^−9M
[2] = primary human T-cells stimulated with IFN-γ, substance 10^−9M
[3] = primary human T-cells stimulated with PBS, 10^−9M
[4] = primary human T-cells stimulated with PBS, substance 10^−9M
[5] = primary human T-cells stimulated with PMA/Ionomycin, 10^−9M
[6] = primary human T-cells stimulated with PMA/Ionomycin, substance 10^−9M

Substance “alpha-melanocyte-stimulating hormone [α-MSH, reference compound]” has an IL-1 cytokine concentration [1] of 229 pg/mL, an IL-2 cytokine concentration [1] of 0 pg/mL and an IL-4 cytokine concentration [1] of 136.29 pg/mL. It also gave an IL-5 cytokine concentration [1] of 145.89 pg/mL, an IL-6 cytokine concentration [1] of 70.19 pg/mL and an IL-9 cytokine concentration [1] of 90.3 pg/mL. The IL-10 cytokine concentration [1] was 109.15 pg/mL, the IL-12p70 cytokine concentration [1] was 727.17 pg/mL and the IL-13 cytokine concentration [1] was 59.46 pg/mL. The IL-17 cytokine concentration [1] was 125.8 pg/mL, the IL-22 cytokine concentration [1] was 0 pg/mL and the TNF-α cytokine concentration [1] was 155.15 pg/mL. For the same substance, the IL-1 cytokine concentration [2] was 0 pg/mL, the IL-2 cytokine concentration [2] was 0 pg/mL and the IL-4 cytokine concentration [2] was 60.49 pg/mL. The IL-5 cytokine concentration [2] was 0 pg/mL, the IL-6 cytokine concentration [2] was 64.54 pg/mL and the IL-9 cytokine concentration [2] was 5.27 pg/mL. It also gave an IL-10 cytokine concentration [2] of 43.9 pg/mL, an IL-12 cytokine concentration [2] of 0 pg/mL and an IL-12p70 cytokine concentration [2] of 0 pg/mL. It also gave an IL-13 cytokine concentration [2] of 0 pg/mL, an IL-17 cytokine concentration [2] of 0 pg/mL and an IL-22 cytokine concentration [2] of 0 pg/mL. For the same substance, the TNF-α cytokine concentration [2] was 18.85 pg/mL, the IFN-γ cytokine concentration [3] was 584.13 pg/mL and the IL-1 cytokine concentration [3] was 233.71 pg/mL. The IL-2 cytokine concentration [3] was 166.83 pg/mL, the IL-4 cytokine concentration [3] was 158.58 pg/mL and the IL-5 cytokine concentration [3] was 26.63 pg/mL. The IL-6 cytokine concentration [3] was 103.97 pg/mL, the IL-9 cytokine concentration [3] was 93.72 pg/mL and the IL-10 cytokine concentration [3] was 154.89 pg/mL. For the same substance, the IL-12p70 cytokine concentration [3] was 100.99 pg/mL, the IL-13 cytokine concentration [3] was 74.71 pg/mL and the IL-17 cytokine concentration [3] was 123.27 pg/mL. It also gave an IL-22 cytokine concentration [3] of 2258.05 pg/mL, a TNF-α cytokine concentration [3] of 127.96 pg/mL and an IFN-γ cytokine concentration [4] of 0 pg/mL. The IL-1 cytokine concentration [4] was 0 pg/mL, the IL-2 cytokine concentration [4] was 139.68 pg/mL and the IL-4 cytokine concentration [4] was 72.42 pg/mL. For the same substance, the IL-5 cytokine concentration [4] was 14.37 pg/mL, the IL-6 cytokine concentration [4] was 117.88 pg/mL and the IL-9 cytokine concentration [4] was 34.99 pg/mL. It also gave an IL-10 cytokine concentration [4] of 164.01 pg/mL, an IL-12 cytokine concentration [4] of 0 pg/mL and an IL-12p70 cytokine concentration [4] of 0 pg/mL. For the same substance, the IL-13 cytokine concentration [4] was 185.71 pg/mL, the IL-17 cytokine concentration [4] was 139.74 pg/mL and the IL-22 cytokine concentration [4] was 0 pg/mL. It also gave an INF-α cytokine concentration [4] of 0 pg/mL, a TNF-a cytokine concentration [4] of 59.06 pg/mL and a TNF-α cytokine concentration [4] of 59.06 pg/mL. It also gave an IFN-γ cytokine concentration [5] of 1049.41 pg/mL, an IL-1 cytokine concentration [5] of 69689.2 pg/mL and an IL-2 cytokine concentration [5] of 12000 pg/mL. For the same substance, the IL-4 cytokine concentration [5] was 200.9 pg/mL, the IL-5 cytokine concentration [5] was 145.89 pg/mL and the IL-6 cytokine concentration [5] was 1542.01 pg/mL. For the same substance, the IL-9 cytokine concentration [5] was 187.5 pg/mL, the IL-10 cytokine concentration [5] was 4311.06 pg/mL and the IL-12p70 cytokine concentration [5] was 1161.04 pg/mL. The IL-13 cytokine concentration [5] was 462.62 pg/mL, the IL-17 cytokine concentration [5] was 2836.14 pg/mL and the IL-22 cytokine concentration [5] was 24400.4 pg/mL. The TNF-α cytokine concentration [5] was 3600 pg/mL, the IFN-γ cytokine concentration [6] was 10814.4 pg/mL and the IL-1 cytokine concentration [6] was 530.55 pg/mL. It also gave an IL-2 cytokine concentration [6] of 2307.5 pg/mL, an IL-4 cytokine concentration [6] of 70.32 pg/mL and an IL-5 cytokine concentration [6] of 278.92 pg/mL. For the same substance, the IL-6 cytokine concentration [6] was 1241.17 pg/mL, the IL-9 cytokine concentration [6] was 264.59 pg/mL and the IL-10 cytokine concentration [6] was 977.83 pg/mL. It also gave an IL-12 cytokine concentration [6] of 0 pg/mL, an IL-12p70 cytokine concentration [6] of 0 pg/mL and an IL-13 cytokine concentration [6] of 1065.69 pg/mL. For the same substance, the IL-17 cytokine concentration [6] was 1660.92 pg/mL, the IL-22 cytokine concentration [6] was 0 pg/mL and the INF-α cytokine concentration [6] was 10814.35 pg/mL. It also gave a TNF-a cytokine concentration [6] of 3346.46 pg/mL and a TNF-α cytokine concentration [6] of 3346.46 pg/mL.
In the case of H-Phe-Pro-[Aib]-OH [Example 13], the “secretion / expression of pro-inflammatory cytokines (supernatant)” value (activated primary human T-cells) is reported as “decreased expression”, the “immunomodulatory activity relative to MMF” value (cells activated with PMA/Ionomycin and IFN-γ, protein and gene level) is reported as “higher” and the IL-1 cytokine concentration [2] is reported as 162.75 pg/mL. It also gave an IL-2 cytokine concentration [2] of 187.16 pg/mL, an IL-4 cytokine concentration [2] of 0 pg/mL and an IL-5 cytokine concentration [2] of 15.32 pg/mL. The IL-6 cytokine concentration [2] was 60.51 pg/mL, the IL-9 cytokine concentration [2] was 0 pg/mL and the IL-10 cytokine concentration [2] was 0 pg/mL. The IL-12p70 cytokine concentration [2] was 0 pg/mL, the IL-13 cytokine concentration [2] was 0 pg/mL and the IL-17 cytokine concentration [2] was 81.59 pg/mL. It also gave an IL-22 cytokine concentration [2] of 0 pg/mL, a TNF-α cytokine concentration [2] of 0 pg/mL and an IL-1 cytokine concentration [4] of 0 pg/mL. For the same substance, the IL-2 cytokine concentration [4] was 115.73 pg/mL, the IL-4 cytokine concentration [4] was 73.19 pg/mL and the IL-5 cytokine concentration [4] was 0 pg/mL. It also gave an IL-6 cytokine concentration [4] of 113.86 pg/mL, an IL-9 cytokine concentration [4] of 10.84 pg/mL and an IL-10 cytokine concentration [4] of 147.54 pg/mL. The IL-12p70 cytokine concentration [4] was 0 pg/mL, the IL-13 cytokine concentration [4] was 0 pg/mL and the IL-17 cytokine concentration [4] was 65.17 pg/mL. It also gave an IL-22 cytokine concentration [4] of 0 pg/mL, an INF-α cytokine concentration [4] of 0 pg/mL and a TNF-α cytokine concentration [4] of 50.36 pg/mL. The IL-1 cytokine concentration [6] was 558.46 pg/mL, the IL-2 cytokine concentration [6] was 2092.22 pg/mL and the IL-4 cytokine concentration [6] was 0 pg/mL. It also gave an IL-5 cytokine concentration [6] of 354.06 pg/mL, an IL-6 cytokine concentration [6] of 1185.87 pg/mL and an IL-9 cytokine concentration [6] of 248.66 pg/mL. The IL-10 cytokine concentration [6] was 872.88 pg/mL, the IL-12p70 cytokine concentration [6] was 0 pg/mL and the IL-13 cytokine concentration [6] was 1081.09 pg/mL. It also gave an IL-17 cytokine concentration [6] of 1069.51 pg/mL, an IL-22 cytokine concentration [6] of 0 pg/mL and an INF-α cytokine concentration [6] of 7456.27 pg/mL. It also gave a TNF-α cytokine concentration [6] of 2706.11 pg/mL.
